The target of one data set is Mammalian Cathepsin S (Homo sapiens, UniProt P25774). Put plainly: Ki competitive inhibition, mammalian cathepsin S. It is filed as biochemical. Here is the method:
(§1) Cathepsin S (Mammalian, murine and rat)
(§2) Assays were performed in 100 mM sodium phosphate, 100 mM NaCl, pH 6.5 (buffer) in white 384 well plates (Coming Costar). Eight inhibitors were assayed per plate.
(§3) Inhibitor dilutions were performed on a 96 well V-bottomed polypropylene plate (Corning Costar). 100 μl of buffer was placed in wells 2-5 and 7-12 of rows A, B, C and D. Sufficient of each inhibitor at 10 mM in DMSO was placed into wells A1-D1 and A6-D6 to give the desired final concentration when the volume in the well was made up to 200 μl with buffer. Column 1 was made up to 200 μl with buffer, mixed by aspirating and dispensing 100 μl in the well, and 100 μl transferred to column 2. The pipette tips were changed and the mixing and transferral repeated to column 5. This process was repeated for columns 6-10.
(§4) Substrate dilutions were performed on a 96 deep well polypropylene plate (Beckman Coulter). 280 μl of buffer was placed in wells B-H of columns 1 and 2.70 μl of 10 mM boc-Val-Leu-Lys-AMC was placed in A1 and A2. 2×250 μl of buffer was added to wells A1 and A2, mixed by aspirating and dispensing 280 μl in the well, and 280 μl transferred to row B. The pipette tips were changed and the process repeated down the plate to row H.
(§5) Column 1 of the substrate dilution plate was distributed at 10 μl per well into alternate rows beginning at row A. Column 2 was distributed to alternate rows beginning at row B. Row A of the inhibitor dilution plate was distributed at 10 μl per well to alternate rows and columns starting at A1. Row B was distributed to alternate rows and columns starting at A2. Row C was distributed to alternate rows and columns starting at B1 and row D was distributed to alternate rows and columns starting at B2. The assay was started by the addition of 30 μl per well of 20 nM cathepsin S in buffer containing 10 mM 2-mercaptoethanol.
(§6) Data were saved as text files and imported into Excel. The initial rates were determined by linear regression and then fitted to the competitive inhibition equation using SigmaPlot.

The target of a further data set is Murine Cathepsin S (Mus musculus, UniProt O70370). Nature of the data set: Ki competitive inhibition, murine cathepsin S. It is filed as biochemical. Here is the method: as §1, §2, §3, §4, §5, §6
In the next data set the target is Rat Cathepsin S (Rattus norvegicus, UniProt Q02765). Put plainly: Ki competitive inhibition, rat cathepsin S. The class given is biochemical. The procedure: as §1, §2, §3, §4, §5, §6
Chain of Rat Cathepsin S (Q02765 113-330): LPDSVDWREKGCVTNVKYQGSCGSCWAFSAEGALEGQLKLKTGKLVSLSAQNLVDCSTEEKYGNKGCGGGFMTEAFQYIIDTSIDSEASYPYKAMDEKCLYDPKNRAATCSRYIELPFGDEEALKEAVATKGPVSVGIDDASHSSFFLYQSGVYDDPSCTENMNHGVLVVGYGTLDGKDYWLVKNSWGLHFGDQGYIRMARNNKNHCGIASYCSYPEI
A further data set has as its target Mammalian Cathepsin L (Homo sapiens, UniProt P07711). Nature of the data set: Ki competitive inhibition, cathepsin L. It is filed as biochemical. The procedure:
as §6
(§7) Assays were performed essentially as above. For cathepsin L, the buffer used was 100 mM sodium acetate, 1 mM EDTA, pH 5.5 and the substrate was D-Val-Leu-Lys-AMC with a highest concentration of 100 μM. For cathepsin K, the buffer used was 100 mM MES/Tris, 1 mM EDTA, pH 7.0 and the substrate was D-Ala-Leu-Lys-AMC with a highest concentration of 250 μM.

In the next data set the target is T1, Mammalian Cathepsin K (Homo sapiens, UniProt P43235).
T1 sequence (P43235 115-329): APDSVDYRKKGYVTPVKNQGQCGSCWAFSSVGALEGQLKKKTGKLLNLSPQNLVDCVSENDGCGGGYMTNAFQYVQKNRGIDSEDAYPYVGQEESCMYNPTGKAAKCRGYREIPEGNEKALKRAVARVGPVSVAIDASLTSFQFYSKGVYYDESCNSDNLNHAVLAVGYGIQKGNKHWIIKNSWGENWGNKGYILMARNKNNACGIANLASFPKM
Nature of the data set: Ki competitive inhibition, cathepsin K. The class given is biochemical. Here is the method:
as §7
Convenient assays for cathepsin K arere carried out using human recombinant enzyme. Standard assay conditions for the determination of kinetic constants used a fluorogenic peptide substrate, typically H-D-Ala-Leu-Lys-AMC, and were determined in either 100 mM Mes/Tris, pH 7.0 containing 1 mM EDTA and 10 mM 2-mercaptoethanol or 100 mM Na acetate, pH 5.5 containing 5 mM EDTA and 20 mM cysteine. The enzyme concentration used was 5 nM. The stock substrate solution was prepared at 10 mM in DMSO. Screens were carried out at a fixed substrate concentration of 60 μM and detailed kinetic studies with doubling dilutions of substrate from 250 μM. The total DMSO concentration in the assay was kept below 3%. All assays were conducted at ambient temperature. Product fluorescence (excitation at 390 nm, emission at 460 nm) was monitored with a Labsystems Fluoroskan Ascent fluorescent plate reader. Product progress curves were generated over 15 minutes following generation of AMC product.
Potential inhibitors are screened using the above assay with variable concentrations of test compound. Reactions were initiated by addition of enzyme to buffered solutions of substrate and inhibitor. Ki values were calculated according to equation 1 [formula] where ν0 is the velocity of the reaction, V is the maximal velocity, S is the concentration of substrate with Michaelis constant of KM, and I is the concentration of inhibitor. Determination of Falcipain 2 Proteolytic Catalytic Activity

A short description of data set [1]: Oral bioavailability in mice. Particulars: mouse, in vivo, dosed i.v. and orally at 10 mg/kg to mice, read-out: oral bioavailability % (F).
Where [2] appears, read: Table 2, Human, read-out: Ki (μM) Human, Mammalian Cathepsin S.
Setting [3] is: Table 2, Mouse, read-out: Ki (μM) Mouse, Murine Cathepsin S.
[4] abbreviates: Table 2, Rat, read-out: Ki (μM) Rat, Rat Cathepsin S.
Where [5] appears, read: Table 1, first line of each CAP-P2 block, read-out: Ki competitive inhibition measurements vs Mammalian Cathepsin S.
Where [6] appears, read: Table 1, second line of each CAP-P2 block, read-out: Ki competitive inhibition measurements vs Mammalian Cathepsin L.
Setting [7] is: Table 1, third line of each CAP-P2 block, read-out: Ki competitive inhibition measurements vs Mammalian Cathepsin K.

Read-outs that look alike come from different tables or passages of the source.

Chain of Mammalian Cathepsin S (P25774 115-331): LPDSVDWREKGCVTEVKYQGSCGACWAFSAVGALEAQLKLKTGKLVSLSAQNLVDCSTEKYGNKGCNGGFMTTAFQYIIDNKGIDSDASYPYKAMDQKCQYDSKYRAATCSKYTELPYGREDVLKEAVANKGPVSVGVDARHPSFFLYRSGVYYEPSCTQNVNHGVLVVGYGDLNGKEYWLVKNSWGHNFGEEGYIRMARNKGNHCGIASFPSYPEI
Chain of Mammalian Cathepsin L (P07711 114-333): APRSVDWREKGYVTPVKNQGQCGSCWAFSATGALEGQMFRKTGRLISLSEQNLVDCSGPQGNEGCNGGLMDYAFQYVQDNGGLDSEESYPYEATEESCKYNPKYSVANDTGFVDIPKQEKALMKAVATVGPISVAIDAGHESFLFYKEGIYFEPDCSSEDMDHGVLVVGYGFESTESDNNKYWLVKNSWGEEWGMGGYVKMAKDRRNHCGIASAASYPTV

Take `CC[C@@H]1OCC(=O)[C@H]1NC(=O)[C@H](CC(C)(C)C)NC(=O)c1ccoc1` [drawing 79/drawing 78 X = O]: the inhibition constant Ki is 0.053 µM at Mammalian Cathepsin S (setting [2]), 0.039 µM at Murine Cathepsin S (setting [3]) and 0.058 µM on Rat Cathepsin S (setting [4]).
With `C[C@@H]1OCC(=O)[C@H]1NC(=O)[C@H](CC(C)(C)C)NC(=O)c1ccoc1` [CAP8-L-tBu-Ala/drawing 71, Furan-3-carboxylic acid[3,3-dimethyl-1S-(2S-methyl-4-oxo-tetrahydrofuran-3S-ylcarbamoyl)butyl]amide], the inhibition constant (Ki) on Mammalian Cathepsin S (setting [5]) is 0.1 µM; on Mammalian Cathepsin S (setting [2]), 0.13 µM; on Murine Cathepsin S (setting [3]) it was 0.1 µM; on Rat Cathepsin S (setting [4]) it was 0.211 µM; at Mammalian Cathepsin L (setting [6]) it was above 100000 nM; at Mammalian Cathepsin K (setting [7]) it was 7300 nM. In addition, the bioavailability in data set [1] was determined as 58%.
With `CCCCC(NC(=O)c1ccc(N(C)C)cc1)C(=O)NC1C(=O)COC1C` [CAP7-L-Nle/drawing 70], the Ki on Mammalian Cathepsin S (setting [5]) was determined as 6.8 µM; at Mammalian Cathepsin L (setting [6]) it was 46700 nM; on Mammalian Cathepsin K (setting [7]) it was 3100 nM.
Consider `C[C@H]1OCC(=O)[C@H]1NC(=O)[C@H](Cc1ccc(O)cc1)NC(=O)Cc1ccccc1` [CAP2-L-Tyr/drawing 69], for which the inhibition constant Ki at Mammalian Cathepsin S (setting [5]) is 3.2 µM; at Mammalian Cathepsin L (setting [6]), 220 nM; at Mammalian Cathepsin K (setting [7]), above 100000 nM.
In the case of `CC1OCC(=O)C1NC(=O)C(CC(C)(C)C)NC(=O)c1ccsc1` [CAP11-L-tBu-Ala/drawing 71], the Ki amounted to 0.095 µM on Mammalian Cathepsin S (setting [5]); 0.095 µM at Mammalian Cathepsin S (setting [2]); 0.048 µM at Murine Cathepsin S (setting [3]); 0.084 µM at Rat Cathepsin S (setting [4]); 55200 nM at Mammalian Cathepsin L (setting [6]); 1550 nM at Mammalian Cathepsin K (setting [7]).
`CC(C)CC[C@H](NC(=O)N1CCOCC1)C(=O)N[C@@H]1C(=O)CO[C@H]1C` [CAP9-L-hLeu/drawing 71]: the values for the inhibition constant Ki on Mammalian Cathepsin S (setting [5]), at Mammalian Cathepsin L (setting [6]) and at Mammalian Cathepsin K (setting [7]) were 0.52 µM, above 100000 nM and above 100000 nM, respectively.
Take `O=C(NC(Cc1ccc(O)cc1)C(=O)NC1COCC1=O)c1ccc(O)cc1` [CAP1-L-Tyr/drawing 72]: the Ki on Mammalian Cathepsin S (setting [5]) worked out at 0.86 µM; on Mammalian Cathepsin L (setting [6]), 330 nM; at Mammalian Cathepsin K (setting [7]) it was 27100 nM.
In the case of `CC[C@@H]1OCC(=O)[C@H]1NC(=O)[C@H](CC(C)(C)C(C)C)NC(=O)c1ccoc1` [CAP8-Hybrid3/drawing 68, Furan-3-carboxylic acid[3,3,4-trimethyl-1S-(2S-ethyl-4-oxo-tetrahydrofuran-3-ylcarbamoyl)pentyl]amide], the inhibition constant (Ki) on Mammalian Cathepsin S (setting [5]) is 0.015 µM; at Mammalian Cathepsin S (setting [2]), 0.015 µM; at Mammalian Cathepsin S (read-out: Ki mammalian cath S), 0.015 µM; at Murine Cathepsin S (read-out: Ki murine cath S), 0.149 µM; at Rat Cathepsin S (read-out: Ki rat cath S), 0.271 µM; on Mammalian Cathepsin L (setting [6]), above 100000 nM. Further, the Ki was above 100000 nM at Mammalian Cathepsin L (read-out: Ki cathepsin L) and 5500 nM on Mammalian Cathepsin K (read-out: Ki cathepsin K).
As to `CCn1nc(C)cc1C(=O)N[C@@H](Cc1ccc(O)cc1)C(=O)N[C@@H]1C(=O)CO[C@H]1C` [CAP10-L-Tyr/drawing 71], the inhibition constant Ki was 4.1 µM on Mammalian Cathepsin S (setting [5]), 450 nM at Mammalian Cathepsin L (setting [6]) and above 100000 nM at Mammalian Cathepsin K (setting [7]).
Consider `C[C@@H]1OCC(=O)[C@@H]1NC(=O)[C@H](Cc1ccc(O)cc1)NC(=O)c1ccccc1` [CAP3-L-Tyr/drawing 70], for which the Ki was 0.17 µM at Mammalian Cathepsin S (setting [5]), 1400 nM on Mammalian Cathepsin L (setting [6]) and above 100000 nM at Mammalian Cathepsin K (setting [7]).
In the case of `Cc1cc(C(=O)N[C@@H](Cc2ccc(O)cc2)C(=O)N[C@@H]2COCC2=O)oc1C` [CAP6-L-Tyr/drawing 73], the values for the inhibition constant (Ki) at Mammalian Cathepsin S (setting [5]), at Mammalian Cathepsin L (setting [6]) and at Mammalian Cathepsin K (setting [7]) were 2.3 µM, 140 nM and above 100000 nM, respectively.
With `CCn1nc(C)cc1C(=O)N[C@@H](Cc1ccc(O)cc1)C(=O)N[C@@H]1COCC1=O` [CAP10-L-Tyr/drawing 73], the inhibition constant Ki on Mammalian Cathepsin S (setting [5]) was 3.7 µM; at Mammalian Cathepsin L (setting [6]) it was 100 nM; at Mammalian Cathepsin K (setting [7]), above 100000 nM.
Taken in the same sequence, the figures for `CC(C)CC[C@H](NC(=O)c1ccoc1)C(=O)N[C@@H]1C(=O)CO[C@@H]1C` [CAP8-L-hLeu/drawing 69] were 0.97 µM, 38900 nM and 16000 nM.
Taken in the same sequence, the figures for `CCCC[C@H](NC(=O)c1ccoc1)C(=O)N[C@H]1C(=O)CO[C@H]1C` [CAP8-L-Nle/drawing 70] were 1 µM, above 100000 nM and above 100000 nM.
Taken in the same sequence, the figures for `Cc1cc(C(=O)N[C@@H](CC(C)C)C(=O)N[C@H]2C(=O)CO[C@H]2C)oc1C` [CAP6-L-Leu/drawing 70] were 0.61 µM, 1100 nM and 750 nM.
As to `CC(C)CC[C@H](NC(=O)c1ccoc1)C(=O)N[C@H]1C(=O)CO[C@H]1C` [CAP8-L-hLeu/drawing 70], the Ki is 0.45 µM at Mammalian Cathepsin S (setting [5]), above 100000 nM on Mammalian Cathepsin L (setting [6]) and above 100000 nM on Mammalian Cathepsin K (setting [7]).
Take `CC(C)CC[C@H](NC(=O)c1ccoc1)C(=O)N[C@@H]1C(=O)CO[C@H]1C` [CAP8-L-hLeu/drawing 71]: the Ki on Mammalian Cathepsin S (setting [5]) was 0.37 µM; at Mammalian Cathepsin L (setting [6]), above 100000 nM; at Mammalian Cathepsin K (setting [7]) it was above 100000 nM.
With `CCCC[C@H](NC(=O)c1ccc(O)cc1)C(=O)N[C@@H]1C(=O)CO[C@H]1C` [CAP1-L-Nle/drawing 71], the Ki at Mammalian Cathepsin S (setting [5]) is 0.4 µM; on Mammalian Cathepsin L (setting [6]) it was 19300 nM; at Mammalian Cathepsin K (setting [7]), 8900 nM.
For `C[C@H]1OCC(=O)[C@H]1NC(=O)[C@H](CC(C)(C)C)NC(=O)c1ccc(O)cc1` [CAP1-L-tBu-Ala/drawing 69] the same measures were 0.25 µM, 3900 nM and 390 nM.
Taken in the same sequence, the figures for `CC(C)C[C@H](NC(=O)c1cccs1)C(=O)N[C@@H]1C(=O)CO[C@@H]1C` [CAP5-L-Leu/drawing 69] were 0.48 µM, 1480 nM and 290 nM.
Take `CCCC[C@H](NC(=O)c1ccc(O)cc1)C(=O)N[C@@H]1COCC1=O` [CAP1-L-Nle/drawing 73]: the Ki was found to be 0.49 µM at Mammalian Cathepsin S (setting [5]), 4400 nM at Mammalian Cathepsin L (setting [6]) and 1150 nM on Mammalian Cathepsin K (setting [7]).
